Assay results from patent US20250163002A1, “FUSED QUINONOXIME IMIDAZOLE, ONIUM DERIVATIVES THEREOF, PREPARATION AND USE THEREOF” (SHANGHAI JIAO TONG UNIVERSITY, priority 2022, published 2025).

What was measured:
[1] = Compound toxicity test, body weight changes; type: in vivo, balb/c mice; settings: tail intravenous injection, 5 mg/kg every day for 7 consecutive days
Method: Test method: the compounds 121, 123, 124, 125, 128, 132, 137, 138, 139, 140, 143, 144, 145, 146, and 147 in the examples of the present invention were administered every day via tail intravenous injection at a dose of 5 mg/kg for 7 consecutive days, and then body weight changes of the balb/c mice were monitored.

[2] = tested on: non-small cell lung cancer cell H1299; test: In vitro proliferation inhibition, H1299; type: cell-based; settings: unit inferred
Method: (§1) Test method: pancreatic cancer cells CFPAC-1 were cultured in a Dalbeco-improved Eagle medium with the addition of 10% FBS and 5% double-antibody. CFPAC-1 cancer cells were inoculated into a 96-well plate for incubation for 24 h; in the following day, test compounds having various concentrations of (100, 20, 10, 1, 0.1, 0.01, and 0.001 μM) and positive control agents were added per well; corresponding volume of fresh medium was added to blank control. After addition for 24 h or 48 h, cell proliferation was evaluated by chromogenic reaction of MTT formazan.
(§2) In addition, compounds (I), (II), (III), and (IV) of the present invention have good inhibition activity against the proliferation of other cancer cells, including non-small cell lung cancer cell (H460, H1299), liver tumor cell (HepG2), rectal cancer cell (HT29), leukemia cell (CCRF-CEM), prostate cancer cell (PC-3), ovarian carcinoma cell (SKOV-3), melanoma cell (A375), myeloma cell (RPMI-8226), esophageal carcinoma cell (TE-1), pancreatic cancer cell (CFPAC-1, PANC-1, SW1990, ASPC-1, and BXPC-3), bladder cancer cell (5637), and gastric cancer cell (KATO-III).

[3] = tested on: prostate cancer cell PC-3; test: In vitro proliferation inhibition, PC-3; type: cell-based; settings: unit inferred
Method: as §1, §2

[4] = tested on: non-small cell lung cancer cell H460; test: In vitro proliferation inhibition, H460; type: cell-based; settings: unit inferred
Method: as §1, §2

A549 = test: In vitro inhibition test for cancer cell proliferation (MTT), A549; type: cell-based; settings: 24 h or 48 h after addition, unit inferred
myeloma cell RPMI-8226 = test: In vitro proliferation inhibition, RPMI-8226; type: cell-based; settings: unit inferred
Method: as §1, §2

leukemia cell CCRF-CEM = test: In vitro proliferation inhibition, CCRF-CEM; type: cell-based; settings: unit inferred
Method: as §1, §2

rectal cancer cell HT29 = test: In vitro proliferation inhibition, HT29; type: cell-based; settings: unit inferred
Method: as §1, §2

[5] = tested on: pancreatic cancer cell SW1990; test: In vitro proliferation inhibition, SW1990; type: cell-based; settings: unit inferred
Method: as §1, §2

Adenovirus = test: Antiviral activity, plaque test in 293A cells; type: cell-based; settings: adenovirus in 293A cells
Method: Experimental method: 4.59 mg of the compound 125 were weighed and put to a 15 mL centrifugal tube with the addition of 10 mL of sterile water, and dissolved via vortex oscillation until there was no obvious yellow particle, then subpackaged and stored at −20° C., 200 μL/piece (concentration: 1 mM); 2.79 mg Cidofovir (molecular weight: 279) were weighed and added to the 15 mL centrifugal tube, dissolved with the addition of 10 mL sterile water, then subpackaged and stored at −20° C., 200 μL/piece (concentration: 1 mM).
Plaque test: • 1. 293A cells were paved into a 24-well plate with 150,000 cells per well, and cultured at 37° C. for 12-24 h, then used for test after growing to 90%. • 2. 2% low-melting point agarose gel was melted and put to a 56° C. water bath kettle for further use. • 3. Adenovirus having a titer of 10^9 TCID^50/mL was diluted by 10^5 folds; medium in the 24-well plate was removed, and 200 μL of adenoviral diluent was added per well and incubated in a 37° C. 5% CO2 incubator, shaken once every 30 min, and incubated for 1 h in total. • 4. The drug compound 125 to be tested and Cidofovir were double diluted with 2×MEM (16 μL compound 125 was added to 8 mL of 2×MEM, oscillated and mixed well, then 4 mL mixed solution was taken and added to fresh 4 mL of 2×MEM and mixed well, and 5 dilutions were conducted, being 2 μM, 1 μM, 500 nM, 250 nM, and 125 nM, respectively; the maximum concentration of the compound 125 was 1 μM. Similarly, 400 μL Cidofovir was added to 7.6 mL of 2×MEM, oscillated and mixed well, then 4 mL mixed solution was taken and added to fresh 4 mL of 2×MEM and mixed well, and 5 dilutions were conducted, being 50 μM, 25 μM, 12.5 μM, 6.25 μM, and 3.125 μM, respectively); the diluted solution was put at 37° C. for further use. • 4. The viral solution was discarded, and agarose gel preheated at 56° C. was added to 2×MEM by the same volume and mixed well, and then 2 mL of mixed solution was added per well, and incubated at room temperature for 30 min (gel). • 5. […]

MCF-7 = test: In vitro inhibition test for cancer cell proliferation (MTT), MCF-7; type: cell-based; settings: 24 h or 48 h after addition, unit inferred
[6] = tested on: CFPAC-1 pancreatic cancer cells; test: In vivo inhibition test of cancer cell proliferation, CFPAC-1 transplant; set-up: species or system Balb/c naked mouse; settings: 7 mg/kg, once every other three days, 7 times; gross tumor volume
Method: Test method: 3×10^7 CFPAC-1 pancreatic cancer cells were transplanted to subcutaneous tissues of armpit of a Balb/c naked mouse; administration was conducted when the tumor grew to 50-100 mm^3, 100-200 mm^3, and greater than 200 mm^3; the mouse was administered once every other three days, 7 times in total, and 7 mg/kg each time. Normal saline was injected in the control group. Tumor length and diameter were measured by calipers and weight of the moue was weighed until the next day of the final administration. Gross tumor volume was calculated by the following equation:
gross tumor volume (mm^3)=½×[short diameter (mm)]^2×long diameter (mm)

[7] = tested on: esophageal carcinoma cell TE-1; test: In vitro proliferation inhibition, TE-1; type: cell-based; settings: unit inferred
Method: as §1, §2

[8] = tested on: gastric cancer cell KATO-III; test: In vitro proliferation inhibition, KATO-III; type: cell-based; settings: unit inferred
Method: as §1, §2

[9] = tested on: ovarian carcinoma cell SKOV-3; test: In vitro proliferation inhibition, SKOV-3; type: cell-based; settings: unit inferred
Method: as §1, §2

HeLa = test: In vitro inhibition test for cancer cell proliferation (MTT), HeLa; type: cell-based; settings: 24 h or 48 h after addition, unit inferred
[10] = tested on: pancreatic cancer cell PANC-1; test: In vitro proliferation inhibition, PANC-1; type: cell-based; settings: unit inferred
Method: as §1, §2

L929 = test: In vitro cell proliferation inhibition test (MTT), L929; type: cell-based; settings: 24 h or 48 h after addition, unit inferred
[11] = tested on: pancreatic cancer cell BXPC-3; test: In vitro proliferation inhibition, BXPC-3; type: cell-based; settings: unit inferred
Method: as §1, §2

melanoma cell A375 = test: In vitro proliferation inhibition, A375; type: cell-based; settings: unit inferred
Method: as §1, §2

liver tumor cell HepG2 = test: In vitro proliferation inhibition, HepG2; type: cell-based; settings: unit inferred
Method: as §1, §2

[12] = tested on: pancreatic cancer cell ASPC-1; test: In vitro proliferation inhibition, ASPC-1; type: cell-based; settings: unit inferred
Method: as §1, §2

[13] = tested on: pancreatic cancer cells CFPAC-1; test: In vitro proliferation inhibition, CFPAC-1; type: cell-based; settings: unit inferred
Method: as §1, §2

bladder cancer cell 5637 = test: In vitro proliferation inhibition, 5637; type: cell-based; settings: unit inferred
Method: as §1, §2

For `Nc1ccn([C@@H]2O[C@H](CO)[C@@H](O)C2(F)F)c(=O)n1` [gemcitabine], the “condition and body weight changes of the mice” value [1] was “obviously reduced weight and are dispirited”.
Work on `Cn1c[n+](C)c2c1C(=O)c1ccccc1C2=NOCc1ccccc1.[I-]` [Compound 125, (E) and (Z)-4-((benzyloxy)imino)-1,3-dimethyl-9-oxo-4,9-dihydro-1H-naphthol[2,3-d]imidazole-3-iodide] yielded an IC50 [2] of 260 nM, an IC50 [3] of 26500 nM and an IC50 [4] of 160 nM. It also gave an IC50 (A549) of 5 nM, an IC50 (myeloma cell RPMI-8226) of 89000 nM and an IC50 (leukemia cell CCRF-CEM) of 90 nM. The IC50 (rectal cancer cell HT29) was 5400 nM, the IC50 [5] was 9 nM and the “effect on viral replication” value (Adenovirus) was “inhibiting effect on viral replication”. The IC50 (MCF-7) was 4500 nM, the “proliferation inhibition activity / inhibition ratio” value [6] was 100% and the IC50 [7] was 60 nM. The IC50 [8] was 9 nM, the IC50 [9] was 90 nM and the IC50 (HeLa) was 5300 nM. For the same compound, the IC50 [10] was 970 nM, the IC50 (L929) was 45300 nM and the IC50 [11] was 3 nM. The IC50 (melanoma cell A375) was 2210 nM, the IC50 (liver tumor cell HepG2) was 9 nM and the IC50 [12] was 5 nM. The IC50 [13] was 6 nM and the IC50 (bladder cancer cell 5637) was 40 nM.
